Assay results taken from publication PMC2783186 (Journal of medicinal chemistry, 2009).

Assays:
[1] = test system: Cytochrome P450 2C19 (CYP2C19); conditions: ref PubChem database; cited from earlier work
PHOSPHO1 = molecular target: T1, PHOSPHO1 (Homo sapiens, UniProt Q8TCT1); test: PHOSPHO1 counterscreen; assay type: biochemical; conditions: read-out: Inhibition of PHOSPHO1
T1 sequence (Q8TCT1 1-267): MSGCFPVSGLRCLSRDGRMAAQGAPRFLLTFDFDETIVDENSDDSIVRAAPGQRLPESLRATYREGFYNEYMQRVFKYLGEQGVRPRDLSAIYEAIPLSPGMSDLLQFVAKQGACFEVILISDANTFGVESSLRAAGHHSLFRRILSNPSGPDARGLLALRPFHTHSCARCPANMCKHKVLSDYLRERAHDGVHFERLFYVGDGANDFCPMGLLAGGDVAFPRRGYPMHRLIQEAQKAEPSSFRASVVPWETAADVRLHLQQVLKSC

PAMPA permeability = assay type: in vitro ADME
PLAP = PLAP (Homo sapiens, UniProt P05187); test: PLAP luminescent assay; assay type: biochemical
TNAP [2] = molecular target: T2, TNAP (Homo sapiens, UniProt P05186); conditions: cited from earlier work
T2 sequence (P05186 18-501 limits assumed): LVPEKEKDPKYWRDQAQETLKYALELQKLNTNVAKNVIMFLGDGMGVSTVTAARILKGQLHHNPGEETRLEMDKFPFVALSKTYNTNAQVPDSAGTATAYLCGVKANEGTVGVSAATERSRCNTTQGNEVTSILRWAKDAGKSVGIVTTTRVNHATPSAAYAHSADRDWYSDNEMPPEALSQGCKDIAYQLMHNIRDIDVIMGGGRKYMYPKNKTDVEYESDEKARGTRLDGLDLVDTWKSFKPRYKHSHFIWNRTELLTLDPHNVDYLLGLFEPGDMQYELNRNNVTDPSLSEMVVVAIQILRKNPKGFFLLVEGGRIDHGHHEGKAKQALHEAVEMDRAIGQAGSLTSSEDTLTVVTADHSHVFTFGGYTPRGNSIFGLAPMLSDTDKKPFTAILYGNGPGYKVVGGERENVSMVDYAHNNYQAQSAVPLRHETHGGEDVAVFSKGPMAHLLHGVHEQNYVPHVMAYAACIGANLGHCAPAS

TNAP [3] = molecular target: T2, TNAP; test: TNAP luminescent assay; assay type: biochemical; conditions: relative to lead compound 1

PLAP, sequence (P05187 23-506 limits assumed): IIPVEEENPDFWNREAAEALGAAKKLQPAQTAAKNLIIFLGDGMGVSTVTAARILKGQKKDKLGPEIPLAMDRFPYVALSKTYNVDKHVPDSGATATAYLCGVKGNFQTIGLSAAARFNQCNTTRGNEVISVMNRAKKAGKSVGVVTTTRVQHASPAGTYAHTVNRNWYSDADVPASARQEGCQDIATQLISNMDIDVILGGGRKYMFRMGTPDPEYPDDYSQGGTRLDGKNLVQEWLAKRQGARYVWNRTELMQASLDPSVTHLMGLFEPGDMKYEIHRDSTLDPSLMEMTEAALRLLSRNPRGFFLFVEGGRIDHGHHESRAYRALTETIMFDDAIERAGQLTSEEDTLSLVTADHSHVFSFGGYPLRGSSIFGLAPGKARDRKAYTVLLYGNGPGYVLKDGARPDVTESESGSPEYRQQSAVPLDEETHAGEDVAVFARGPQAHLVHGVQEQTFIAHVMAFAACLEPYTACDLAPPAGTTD

| SMILES | PAMPA (% FLUX) (PAMPA permeability) | TNAP inhibitory activity (in words) (TNAP [3]) | other results |
| --- | --- | --- | --- |
| COc1ccc(OC)c(S(=O)(=O)Nc2cnc3ccccc3c2)c1 [Compound 1, 2,5-Dimethoxy-N-(quinolin-3-yl)benzenesulfonamide] | 58 | – | Activity in Cytochrome P450 2C19 assay [1]: showed activity; inhibition at 10 µM (PHOSPHO1): < 7.4%; IC50 (PLAP): > 100 µM |
| COc1ccc(C)cc1S(=O)(=O)Nc1cnc2ccccc2c1 [Compound 19, 2-Methoxy-5-methyl-N-(quinolin-3-yl)benzenesulfonamide] | 7 | – | – |
| c1ccc([C@H]2CN3CCSC3=N2)cc1 [levamisole] | – | – | Mode of inhibition versus phosphate-donor substrate (TNAP [2]): uncompetitive |
| COc1cccc(S(=O)(=O)Nc2cnc3ccccc3c2)c1 [Compound 15, 3-Methoxy-N-(quinolin-3-yl)benzenesulfonamide] | – | dramatic loss of activity | – |
| COc1ccc(OC)c(S(=O)(=O)Nc2ccc3ccccc3c2)c1 [Compound 12, 2,5-Dimethoxy-N-(naphthalen-2-yl)benzenesulfonamide] | – | loss of activity | – |
| NC(N)=NCCCC[C@H](N)C(=O)O [L-homoarginine] | – | – | Mode of inhibition versus phosphate-donor substrate (TNAP [2]): uncompetitive |
| COc1ccc(Br)cc1S(=O)(=O)Nc1cnc2ccccc2c1 [Compound 18, 5-Bromo-2-methoxy-N-(quinolin-3-yl)benzenesulfonamide] | 54 | – | – |
| COc1ccc(OC)c(S(=O)(=O)Nc2ccc3ncccc3c2)c1 [Compound 13, 2,5-Dimethoxy-N-(quinolin-6-yl)benzenesulfonamide] | – | loss of activity | – |
| COc1ccc(OC)c(NS(=O)(=O)c2cnc3ccccc3c2)c1 [Compound 16, N-(2,5-Dimethoxyphenyl)quinoline-3-sulfonamide] | – | abolished the inhibitory activity | – |
| COc1ccc(OC)c(CNc2cnc3ccccc3c2)c1 [Compound 17] | – | abolished the inhibitory activity | – |
